# Test results taken from PMC9124866, “Structure-Activity Relationships of Dopamine Transporter Pharmacological Chaperones” (Frontiers in Cellular Neuroscience, 2022).
# Molecular target: YFP-HA-βlac-DAT (Homo sapiens, UniProt Q01959)
# Assay: β-lactamase (βlac) surface expression assay
# Format: cell-based
# Conditions: HEK293, read-out: EMax (%), WT DAT surface expression, HEK cells expressing YFP-HA-βlac-DAT, overnight (16 h) incubation, up to 100 μM, normalized to vehicle; assumed effective EMax
# Procedure: The βlac surface expression assay was performed by following the method outlined in [Lam et al. (2013)] and [Beerepoot et al. (2015], [2016)]. The assay substrate nitrocefin (BD biosciences) was dissolved in dimethyl sulfoxide (DMSO) at a concentration of 10 mM and frozen at −80°C. Immediately before use, it was thawed and diluted to a final concentration of 100 μM in phosphate buffered saline (PBS). Cells (1 × 10^5/well) were seeded into a poly-D-lysine-coated 48-well plate and incubated for 24 h, prior to drug treatment. Drugs were added to individual wells at varying concentrations and incubated for 16 h. Subsequently, the media was aspirated, and the cells were washed twice with PBS. After removal of the final PBS wash, 200 μL of the nitrocefin solution was added to each well and the absorbance was immediately read. The EPOCH microplate spectrophotometer (BioTek) was used to measure absorbance (486 nm) for each well every minute for 30 min. The rate of reaction (slope of the curve) was used as the readout for the assay ([Beerepoot et al., 2015]). To determine suitable concentration ranges for each drug, they were dissolved in PBS or DMSO at the highest concentration possible. From here, the solutions were serial diluted 1/10 to yield 8 different concentrations. βLAC cells were then treated with the varying drug concentrations and cell viability was recorded using light microscopy. For additional measure, nitrocefin was added and the absorbance was read. For certain cases, Trypan Blue was used to quantitatively differentiate increased cell death from reduced cell division. […] Five or six doses were generally used in subsequent dosing experiments, starting at the highest non-toxic concentration.
# Data analysis was performed using GraphPad Prism (GraphPad Software, La Jolla, CA). Linear regression analysis was performed on βLAC time points to determine the slope, thus the rate of reaction, for comparison. Furthermore, the slope was also used to determine the degree of dopamine uptake in the dopamine uptake assays. Non-linear regression, fitting to the log(agonist) vs. response and log(inhibitor) vs. response model curve, was used to determine dose-response relationships of surface expression and uptake assays, respectively. One-way ANOVA with Dunnett’s post hoc-test was used for the β-lactamase assay and one-way ANOVA with Bonferroni correction was used for western blot analysis.
# Among these were RTI-1, RTI-2, RTI-5, RTI-6, RTI-11, RTI-20, and PAL-1007. […] The EMax values of all the analyzed drugs are included in Figure 1.
# The pharmacological chaperone ability of the 15 ibogaine and tryptamine analogs, shown in Figure 3, were measured using the βlac surface expression assay. HEK cells expressing YFP-HA-βlac-DAT were incubated overnight with these compounds at concentrations varying by log and half-log dilutions, starting at 100 μM final concentration. […] Furthermore, it was important to determine whether the β-carboline analogs could also elicit a chaperone effect because they are not classified as DAT ligands ([Cao et al., 2007]). […] Removing the nitrogen from the ring reduced efficacy as observed with frovatriptan (103 ± 1.4%). […] Evodiamine (54 ± 1.7%) had no chaperone ability and caused a substantial reduction in the surface expression of DAT. Dose-response curves were generated to assess the pharmacological chaperone potencies of select compounds (Figure 4).
# YFP-HA-βlac-DAT, sequence (Q01959 1-171 limits assumed): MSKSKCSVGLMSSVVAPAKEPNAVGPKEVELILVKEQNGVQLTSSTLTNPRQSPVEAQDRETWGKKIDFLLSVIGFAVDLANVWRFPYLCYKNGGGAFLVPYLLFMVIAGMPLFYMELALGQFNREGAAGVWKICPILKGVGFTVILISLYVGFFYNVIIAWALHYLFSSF
# YFP-HA-βlac-DAT, sequence (Q01959 237-620 limits assumed): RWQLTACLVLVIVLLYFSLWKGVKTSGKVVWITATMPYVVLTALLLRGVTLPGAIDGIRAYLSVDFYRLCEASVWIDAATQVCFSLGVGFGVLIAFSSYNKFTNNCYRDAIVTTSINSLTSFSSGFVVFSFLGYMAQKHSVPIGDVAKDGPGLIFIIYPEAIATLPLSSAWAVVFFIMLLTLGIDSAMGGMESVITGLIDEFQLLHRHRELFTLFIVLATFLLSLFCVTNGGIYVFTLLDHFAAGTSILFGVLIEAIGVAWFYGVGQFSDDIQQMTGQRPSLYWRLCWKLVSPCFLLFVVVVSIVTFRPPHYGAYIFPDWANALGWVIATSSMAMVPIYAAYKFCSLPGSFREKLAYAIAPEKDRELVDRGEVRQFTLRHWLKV
structure (smiles),measurement,value
"CCC1CC2CC3c4[nH]c5ccc(O)cc5c4CCN(C2)C13 (stereo not shown) [Noribogaine, reference compound]",Emax,251 ± 17.8%
